In ChEMBL document CHEMBL4251595, “Green approach for the synthesis of thiophenyl pyrazoles and isoxazoles by adopting 1,3-dipolar cycloaddition methodology and their antimicrobial activity” (2018):
Converted amounts (≈) assume the structure as drawn.

Key:
Type in all cases: functional
Klebsiella pneumoniae [1] = assay: Antimicrobial activity against Klebsiella pneumoniae after 24 hrs by broth dilution test
Penicillium chrysogenum [2] = assay: Antifungal activity against Penicillium chrysogenum assessed as zone of inhibition at 100 ug/well after 48 hrs by agar well diffusion method; details: read-out: DIZ
Klebsiella pneumoniae [3] = assay: Antimicrobial activity against Klebsiella pneumoniae assessed as zone of inhibition at 50 ug/well after 24 hrs by agar well diffusion method; details: read-out: DIZ
Bacillus subtilis [4] = assay: Antimicrobial activity against Bacillus subtilis assessed as zone of inhibition at 75 ug/well after 24 hrs by agar well diffusion method; details: read-out: DIZ
Klebsiella pneumoniae [5] = assay: Bactericidal activity against Klebsiella pneumoniae incubated for 24 hrs followed by replating on sterile nutrient broth and incubated for 24 hrs by broth dilution test
Staphylococcus aureus [6] = assay: Antimicrobial activity against Staphylococcus aureus assessed as zone of inhibition at 100 ug/well after 24 hrs by agar well diffusion method; details: read-out: DIZ
Pseudomonas aeruginosa [7] = assay: Antimicrobial activity against Pseudomonas aeruginosa assessed as zone of inhibition at 100 ug/well after 24 hrs by agar well diffusion method; details: read-out: DIZ
Aspergillus niger [8] = assay: Antifungal activity against Aspergillus niger assessed as zone of inhibition at 75 ug/well after 48 hrs by agar well diffusion method; details: read-out: DIZ
Bacillus subtilis [9] = assay: Bactericidal activity against Bacillus subtilis incubated for 24 hrs followed by replating on sterile nutrient broth and incubated for 24 hrs by broth dilution test
Pseudomonas aeruginosa [10] = assay: Antimicrobial activity against Pseudomonas aeruginosa after 24 hrs by broth dilution test
Bacillus subtilis [11] = assay: Antimicrobial activity against Bacillus subtilis assessed as zone of inhibition at 100 ug/well after 24 hrs by agar well diffusion method; details: read-out: DIZ
Aspergillus niger [12] = assay: Antifungal activity against Aspergillus niger after 48 hrs by broth dilution test
Staphylococcus aureus [13] = assay: Antimicrobial activity against Staphylococcus aureus assessed as zone of inhibition at 75 ug/well after 24 hrs by agar well diffusion method; details: read-out: DIZ
Klebsiella pneumoniae [14] = assay: Antimicrobial activity against Klebsiella pneumoniae assessed as zone of inhibition at 75 ug/well after 24 hrs by agar well diffusion method; details: read-out: DIZ
Aspergillus niger [15] = assay: Antifungal activity against Aspergillus niger assessed as zone of inhibition at 50 ug/well after 48 hrs by agar well diffusion method; details: read-out: DIZ
Staphylococcus aureus [16] = assay: Bactericidal activity against Staphylococcus aureus incubated for 24 hrs followed by replating on sterile nutrient broth and incubated for 24 hrs by broth dilution test
Bacillus subtilis [17] = assay: Antimicrobial activity against Bacillus subtilis assessed as zone of inhibition at 50 ug/well after 24 hrs by agar well diffusion method; details: read-out: DIZ
Penicillium chrysogenum [18] = assay: Antifungal activity against Penicillium chrysogenum assessed as zone of inhibition at 75 ug/well after 48 hrs by agar well diffusion method; details: read-out: DIZ
Pseudomonas aeruginosa [19] = assay: Antimicrobial activity against Pseudomonas aeruginosa assessed as zone of inhibition at 75 ug/well after 24 hrs by agar well diffusion method; details: read-out: DIZ
Bacillus subtilis [20] = assay: Antimicrobial activity against Bacillus subtilis after 24 hrs by broth dilution test
Penicillium chrysogenum [21] = assay: Antifungal activity against Penicillium chrysogenum after 48 hrs by broth dilution test
Penicillium chrysogenum [22] = assay: Fungicidal activity against Penicillium chrysogenum incubated for 48 hrs followed by replating on PDA and incubated for 48 hrs by broth dilution test
Staphylococcus aureus [23] = assay: Antimicrobial activity against Staphylococcus aureus assessed as zone of inhibition at 50 ug/well after 24 hrs by agar well diffusion method; details: read-out: DIZ
Pseudomonas aeruginosa [24] = assay: Bactericidal activity against Pseudomonas aeruginosa incubated for 24 hrs followed by replating on sterile nutrient broth and incubated for 24 hrs by broth dilution test
Aspergillus niger [25] = assay: Fungicidal activity against Aspergillus niger incubated for 48 hrs followed by replating on PDA and incubated for 48 hrs by broth dilution test
Aspergillus niger [26] = assay: Antifungal activity against Aspergillus niger assessed as zone of inhibition at 100 ug/well after 48 hrs by agar well diffusion method; details: read-out: DIZ
Staphylococcus aureus [27] = assay: Antimicrobial activity against Staphylococcus aureus after 24 hrs by broth dilution test
Pseudomonas aeruginosa [28] = assay: Antimicrobial activity against Pseudomonas aeruginosa assessed as zone of inhibition at 50 ug/well after 24 hrs by agar well diffusion method; details: read-out: DIZ
Penicillium chrysogenum [29] = assay: Antifungal activity against Penicillium chrysogenum assessed as zone of inhibition at 50 ug/well after 48 hrs by agar well diffusion method; details: read-out: DIZ
Klebsiella pneumoniae [30] = assay: Antimicrobial activity against Klebsiella pneumoniae assessed as zone of inhibition at 100 ug/well after 24 hrs by agar well diffusion method; details: read-out: DIZ

Compound | MIC (Klebsiella pneumoniae [1]) [µg/mL] | zone of inhibition at 100 µg/disc (Penicillium chrysogenum [2]) [mm] | zone of inhibition at 50 µg/disc (Klebsiella pneumoniae [3]) [mm] | zone of inhibition at 75 µg/disc (Bacillus subtilis [4]) [mm] | MBC (Klebsiella pneumoniae [5]) [µg/mL] | zone of inhibition at 100 µg/disc (Staphylococcus aureus [6]) [mm] | zone of inhibition at 100 µg/disc (Pseudomonas aeruginosa [7]) [mm] | zone of inhibition at 75 µg/disc (Aspergillus niger [8]) [mm] | MBC (Bacillus subtilis [9]) [µg/mL] | MIC (Pseudomonas aeruginosa [10]) [µg/mL] | zone of inhibition at 100 µg/disc (Bacillus subtilis [11]) [mm] | MIC (Aspergillus niger [12]) [µg/mL] | zone of inhibition at 75 µg/disc (Staphylococcus aureus [13]) [mm] | zone of inhibition at 75 µg/disc (Klebsiella pneumoniae [14]) [mm] | zone of inhibition at 50 µg/disc (Aspergillus niger [15]) [mm] | MBC (Staphylococcus aureus [16]) [µg/mL] | zone of inhibition at 50 µg/disc (Bacillus subtilis [17]) [mm] | zone of inhibition at 75 µg/disc (Penicillium chrysogenum [18]) [mm] | zone of inhibition at 75 µg/disc (Pseudomonas aeruginosa [19]) [mm] | MIC (Bacillus subtilis [20]) [µg/mL] | also measured
O=C(NS(=O)(=O)c1c(-c2ccccc2)nn(-c2ccccc2)c1-c1ccc([N+](=O)[O-])cc1)c1ccc(Cl)s1 | 25 (≈ 44.2 µM) | 29 | 30 | 38 | 100 (≈ 177 µM) | 29 | 26 | 31 | 12.5 (≈ 22.1 µM) | 12.5 (≈ 22.1 µM) | 41 | 12.5 (≈ 22.1 µM) | 28 | 33 | 29 | 200 (≈ 354 µM) | 35 | 25 | 23 | 6.25 (≈ 11.1 µM) | MIC (Penicillium chrysogenum [21]): 50 µg/mL (≈ 88.5 µM); MFC (Penicillium chrysogenum [22]): 200 µg/mL (≈ 354 µM); zone of inhibition at 50 µg/disc (Staphylococcus aureus [23]): 24 mm; MBC (Pseudomonas aeruginosa [24]): 50 µg/mL (≈ 88.5 µM); MFC (Aspergillus niger [25]): 50 µg/mL (≈ 88.5 µM); zone of inhibition at 100 µg/disc (Aspergillus niger [26]): 34 mm; MIC (Staphylococcus aureus [27]): 50 µg/mL (≈ 88.5 µM); zone of inhibition at 50 µg/disc (Pseudomonas aeruginosa [28]): 22 mm; zone of inhibition at 50 µg/disc (Penicillium chrysogenum [29]): 24 mm; zone of inhibition at 100 µg/disc (Klebsiella pneumoniae [30]): 37 mm
O=C(NS(=O)(=O)c1c(-c2ccccc2)noc1-c1ccc([N+](=O)[O-])cc1)c1cccs1 | 25 (≈ 54.9 µM) | 30 | 31 | 38 | 100 (≈ 220 µM) | 30 | 26 | 35 | 12.5 (≈ 27.4 µM) | 12.5 (≈ 27.4 µM) | 42 | 6.25 (≈ 13.7 µM) | 28 | 34 | 33 | 200 (≈ 439 µM) | 34 | 28 | 23 | 6.25 (≈ 13.7 µM) | MIC (Penicillium chrysogenum [21]): 50 µg/mL (≈ 110 µM); MFC (Penicillium chrysogenum [22]): 200 µg/mL (≈ 439 µM); zone of inhibition at 50 µg/disc (Staphylococcus aureus [23]): 25 mm; MBC (Pseudomonas aeruginosa [24]): 50 µg/mL (≈ 110 µM); MFC (Aspergillus niger [25]): 12.5 µg/mL (≈ 27.4 µM); zone of inhibition at 100 µg/disc (Aspergillus niger [26]): 38 mm; MIC (Staphylococcus aureus [27]): 50 µg/mL (≈ 110 µM); zone of inhibition at 50 µg/disc (Pseudomonas aeruginosa [28]): 21 mm; zone of inhibition at 50 µg/disc (Penicillium chrysogenum [29]): 25 mm; zone of inhibition at 100 µg/disc (Klebsiella pneumoniae [30]): 36 mm
O=C(NS(=O)(=O)c1c(-c2ccccc2)nn(-c2ccccc2)c1-c1ccc([N+](=O)[O-])cc1)c1cccs1 | 25 (≈ 47.1 µM) | 27 | 29 | 36 | 100 (≈ 188 µM) | 27 | 24 | 28 | 12.5 (≈ 23.6 µM) | 25 (≈ 47.1 µM) | 40 | 25 (≈ 47.1 µM) | 26 | 32 | 25 | 200 (≈ 377 µM) | 33 | 24 | 21 | 6.25 (≈ 11.8 µM) | MIC (Penicillium chrysogenum [21]): 100 µg/mL (≈ 188 µM); MFC (Penicillium chrysogenum [22]): > 200 µg/mL; zone of inhibition at 50 µg/disc (Staphylococcus aureus [23]): 23 mm; MBC (Pseudomonas aeruginosa [24]): 100 µg/mL (≈ 188 µM); MFC (Aspergillus niger [25]): 100 µg/mL (≈ 188 µM); zone of inhibition at 100 µg/disc (Aspergillus niger [26]): 31 mm; MIC (Staphylococcus aureus [27]): 50 µg/mL (≈ 94.2 µM); zone of inhibition at 50 µg/disc (Pseudomonas aeruginosa [28]): 20 mm; zone of inhibition at 50 µg/disc (Penicillium chrysogenum [29]): 22 mm; zone of inhibition at 100 µg/disc (Klebsiella pneumoniae [30]): 34 mm
